≈ marks a conversion by molar mass, not a printed value.
Experiments:
[1] = system: Staphylococcus aureus; test: Antibacterial activity against methicillin sensitive Staphylococcus aureus ATCC 29213 assessed as reduction in microbial growth incubated for 24 hrs by broth microdilution method; assay type: functional
[2] = system: Pseudomonas aeruginosa; test: Antibacterial activity against Pseudomonas aeruginosa ATCC 27853 assessed as reduction in microbial growth incubated for 24 hrs by broth microdilution method; assay type: functional
[3] = system: Staphylococcus epidermidis; test: Antibacterial activity against clinical isolate Staphylococcus epidermidis assessed as reduction in microbial growth incubated for 24 hrs by broth microdilution method; assay type: functional
[4] = system: Bacillus subtilis; test: Antibacterial activity against Bacillus subtilis 168 assessed as reduction in microbial growth incubated for 24 hrs by broth microdilution method; assay type: functional
[5] = system: Escherichia coli; test: Antibacterial activity against Escherichia coli ATCC 25922 assessed as reduction in microbial growth incubated for 24 hrs by broth microdilution method; assay type: functional
[6] = system: Salmonella typhimurium; test: Antibacterial activity against Salmonella typhimurium TA100 assessed as reduction in microbial growth incubated for 24 hrs by broth microdilution method; assay type: functional, Salmonella enterica subsp. enterica serovar Typhimurium; settings: Salmonella enterica
[7] = system: Micrococcus luteus; test: Antibacterial activity against clinical isolate Micrococcus luteus assessed as reduction in microbial growth incubated for 24 hrs by broth microdilution method; assay type: functional
[8] = system: Enterococcus faecalis; test: Antibacterial activity against clinical isolate Enterococcus faecalis 1465 assessed as reduction in microbial growth incubated for 24 hrs by broth microdilution method; assay type: functional
[9] = system: Pseudomonas aeruginosa; test: Antibacterial activity against clinical isolate Pseudomonas aeruginosa NKC 17 assessed as reduction in microbial growth incubated for 24 hrs by broth microdilution method; assay type: functional
[10] = system: Staphylococcus haemolyticus; test: Antibacterial activity against clinical isolate Staphylococcus haemolyticus 1464 assessed as reduction in microbial growth incubated for 24 hrs by broth microdilution method; assay type: functional
[11] = system: Escherichia coli; test: Antibacterial activity against clinical isolate Escherichia coli NKC 1 assessed as reduction in microbial growth incubated for 24 hrs by broth microdilution method; assay type: functional
[12] = system: Staphylococcus aureus; test: Antibacterial activity against clinical isolate Staphylococcus aureus 4721 assessed as reduction in microbial growth incubated for 24 hrs by broth microdilution method; assay type: functional
[13] = Cytotoxicity against human MSC assessed as reduction in cell viability incubated for 72 hrs by MTT assay; assay type: toxicity, cell-based; settings: MSC cells
[14] = system: Staphylococcus epidermidis; test: Antibacterial activity against clinical isolate Staphylococcus epidermidis NKC 37/1 assessed as reduction in microbial growth incubated for 24 hrs by broth microdilution method; assay type: functional
[15] = system: Staphylococcus auricularis; test: Antibacterial activity against clinical isolate Staphylococcus auricularis NKC 7 assessed as reduction in microbial growth incubated for 24 hrs by broth microdilution method; assay type: functional
[16] = system: Cedecea davisae; test: Antibacterial activity against clinical isolate Cedecea davisae 1813 assessed as reduction in microbial growth incubated for 24 hrs by broth microdilution method; assay type: functional
[17] = system: Klebsiella aerogenes; test: Antibacterial activity against clinical isolate Enterobacter aerogenes NKC 8 assessed as reduction in microbial growth incubated for 24 hrs by broth microdilution method; assay type: functional
[18] = system: Staphylococcus aureus; test: Antibacterial activity against clinical isolate methicillin resistant Staphylococcus aureus 4771 assessed as reduction in microbial growth incubated for 24 hrs by broth microdilution method; assay type: functional
[19] = Cytotoxicity against human CHL assessed as reduction in cell viability incubated for 72 hrs by MTT assay; assay type: toxicity, cell-based; settings: CHL cells
[20] = system: Staphylococcus haemolyticus; test: Antibacterial activity against clinical isolate Staphylococcus haemolyticus NKC 31/2 assessed as reduction in microbial growth incubated for 24 hrs by broth microdilution method; assay type: functional
[21] = system: Klebsiella pneumoniae; test: Antibacterial activity against clinical isolate Klebsiella pneumoniae 1678 assessed as reduction in microbial growth incubated for 24 hrs by broth microdilution method; assay type: functional
[22] = Cytotoxicity against human HSF assessed as reduction in cell viability incubated for 72 hrs by MTT assay; assay type: toxicity, cell-based; settings: HSF cells
[23] = system: Staphylococcus aureus; test: Antibacterial activity against clinical isolate Staphylococcus aureus 1812 assessed as reduction in microbial growth incubated for 24 hrs by broth microdilution method; assay type: functional

| Compound | MIC [1] | MIC [2] | MIC [3] | MIC [4] | MIC [5] | MIC [6] | MIC [7] | further results |
| --- | --- | --- | --- | --- | --- | --- | --- | --- |
| CCn1cc(C(=O)O)c(=O)c2cc(F)c(N3CCN(Cc4cnc(C)c5c4COC(C)O5)CC3)cc21 (centres undefined) | 32 µg/mL | > 64 µg/mL | 32 µg/mL | 8 µg/mL | > 64 µg/mL | 16 µg/mL | 64 µg/mL | – |
| CCCC1OCc2c(CN3CCN(c4cc5c(cc4F)c(=O)c(C(=O)O)cn5CC)CC3)cnc(C)c2O1 (centres undefined) | 16 µg/mL | > 64 µg/mL | 32 µg/mL | 2 µg/mL | > 64 µg/mL | 2 µg/mL | 64 µg/mL | – |
| CCCCCCCCC1OCc2c(CN3CCN(c4cc5c(cc4F)c(=O)c(C(=O)O)cn5C4CC4)CC3)cnc(C)c2O1 (centres undefined) | 32 µg/mL | > 64 µg/mL | 64 µg/mL | 2 µg/mL | > 64 µg/mL | 4 µg/mL | 64 µg/mL | – |
| CCCC1OCc2c(CN3CCN(c4cc5c(cc4F)c(=O)c(C(=O)O)cn5C4CC4)CC3)cnc(C)c2O1 (centres undefined) | 64 µg/mL | > 64 µg/mL | 64 µg/mL | 2 µg/mL | > 64 µg/mL | 4 µg/mL | 64 µg/mL | – |
| Cc1nc(CO)c(CN2CCN(c3cc4c(cc3F)c(=O)c(C(=O)O)cn4C3CC3)CC2)c(CO)c1O.Cl | 0.5 µg/mL | > 64 µg/mL | 8 µg/mL | 4 µg/mL | 64 µg/mL | 4 µg/mL | 2 µg/mL | MIC [8]: 32 µg/mL; MIC [9]: 16 µg/mL; MIC [10]: 4 µg/mL; MIC [11]: 0.5 µg/mL; MIC [12]: 2 µg/mL; CC50 at 72 h [13]: 52.6 µg/mL; MIC [14]: 1 µg/mL; MIC [15]: 0.25 µg/mL; MIC [16]: 1 µg/mL; MIC [17]: 2 µg/mL; MIC [18]: 2 µg/mL; CC50 at 72 h [19]: 31.8 µg/mL; MIC [20]: 16 µg/mL; MIC [21]: 8 µg/mL; CC50 at 72 h [22]: 38 µg/mL; MIC [23]: 4 µg/mL |
| CCCC1OCc2c(CN3CCC[C@H]4CN(c5c(F)cc6c(=O)c(C(=O)O)cn(C7CC7)c6c5OC)C[C@H]43)cnc(C)c2O1 (some centres undefined) | 2 µg/mL | > 64 µg/mL | 2 µg/mL | 2 µg/mL | > 64 µg/mL | 4 µg/mL | 2 µg/mL | MIC [8]: 64 µg/mL; MIC [9]: > 64 µg/mL; MIC [10]: 2 µg/mL; MIC [11]: 4 µg/mL; MIC [12]: 2 µg/mL; CC50 at 72 h [13]: 2.91 µg/mL (≈ 4.8 µM); MIC [14]: 4 µg/mL; MIC [15]: 0.13 µg/mL; MIC [16]: 2 µg/mL; MIC [17]: 64 µg/mL; MIC [18]: 4 µg/mL; CC50 at 72 h [19]: 2.46 µg/mL (≈ 4.05 µM); MIC [20]: 64 µg/mL; MIC [21]: > 64 µg/mL; CC50 at 72 h [22]: 2.34 µg/mL (≈ 3.86 µM); MIC [23]: 4 µg/mL |
| CCn1cc(C(=O)O)c(=O)c2cc(F)c(N3CCN(Cc4cnc(C)c(O)c4C)C(C)C3)c(F)c21.Cl (centres undefined) | 2 µg/mL | > 64 µg/mL | > 64 µg/mL | 1 µg/mL | 2 µg/mL | 2 µg/mL | 32 µg/mL | – |
| CCn1cc(C(=O)O)c(=O)c2cc(F)c(N3CCN(Cc4cnc(C)c5c4COC(C)(C)O5)CC3)cc21 | > 64 µg/mL | > 64 µg/mL | > 64 µg/mL | 64 µg/mL | 64 µg/mL | > 64 µg/mL | > 64 µg/mL | – |
| Cc1nc(CN2CCN(c3cc4c(cc3F)c(=O)c(C(=O)O)cn4C3CC3)CC2)c(CO)c2c1OC(C)(C)OC2 | 8 µg/mL | > 64 µg/mL | 8 µg/mL | 2 µg/mL | 64 µg/mL | 4 µg/mL | 8 µg/mL | – |
| Cc1nc(CN2CCN(c3cc4c(cc3F)c(=O)c(C(=O)O)cn4C3CC3)CC2)c(CO)c(CO)c1O.Cl | 64 µg/mL | > 64 µg/mL | 32 µg/mL | 2 µg/mL | 64 µg/mL | 4 µg/mL | 32 µg/mL | – |
| CCn1cc(C(=O)O)c(=O)c2cc(F)c(N3CCN(Cc4cnc(C)c5c4COCO5)C(C)C3)c(F)c21.Cl (centres undefined) | 8 µg/mL | > 64 µg/mL | 16 µg/mL | 4 µg/mL | 16 µg/mL | 4 µg/mL | 32 µg/mL | – |
| CCn1cc(C(=O)O)c(=O)c2cc(F)c(N3CCN(Cc4cnc(C)c(O)c4CO)CC3)cc21.Cl | 16 µg/mL | > 64 µg/mL | 32 µg/mL | 4 µg/mL | 64 µg/mL | 4 µg/mL | 32 µg/mL | – |
| CCn1cc(C(=O)O)c(=O)c2cc(F)c(N3CCN(Cc4cnc(C)c5c4COC(C)(C)O5)C(C)C3)c(F)c21.Cl (centres undefined) | 16 µg/mL | > 64 µg/mL | 64 µg/mL | 2 µg/mL | > 64 µg/mL | 2 µg/mL | 8 µg/mL | – |
| CCn1cc(C(=O)O)c(=O)c2cc(F)c(N3CCN(Cc4c(CO)nc(C)c(O)c4CO)CC3)cc21.Cl | 8 µg/mL | > 64 µg/mL | 16 µg/mL | 8 µg/mL | 8 µg/mL | 4 µg/mL | 16 µg/mL | – |
| CCn1cc(C(=O)O)c(=O)c2cc(F)c(N3CCN(Cc4nc(C)c(O)c(CO)c4CO)CC3)cc21.Cl | 8 µg/mL | > 64 µg/mL | 32 µg/mL | 4 µg/mL | > 64 µg/mL | 16 µg/mL | 8 µg/mL | – |
| CCCCCCCCC1OCc2c(CN3CCN(c4c(F)cc5c(=O)c(C(=O)O)cn(CC)c5c4F)CC3C)cnc(C)c2O1 (centres undefined) | > 64 µg/mL | > 64 µg/mL | > 64 µg/mL | > 64 µg/mL | > 64 µg/mL | > 64 µg/mL | > 64 µg/mL | – |
| CCn1cc(C(=O)O)c(=O)c2cc(F)c(N3CCN(Cc4nc(C)c(O)c(CO)c4CO)C(C)C3)c(F)c21.Cl (centres undefined) | 2 µg/mL | > 64 µg/mL | 64 µg/mL | 2 µg/mL | 2 µg/mL | 2 µg/mL | 64 µg/mL | – |
| Cc1ncc(CN2CCN(c3cc4c(cc3F)c(=O)c(C(=O)O)cn4C3CC3)CC2)c2c1OC(C)OC2.Cl (centres undefined) | 8 µg/mL | > 64 µg/mL | 8 µg/mL | 2 µg/mL | > 64 µg/mL | 4 µg/mL | 8 µg/mL | – |
| CCn1cc(C(=O)O)c(=O)c2cc(F)c(N3CCN(Cc4cnc(C)c5c4COC(C)O5)C(C)C3)c(F)c21 (centres undefined) | 2 µg/mL | 16 µg/mL | 8 µg/mL | 2 µg/mL | > 64 µg/mL | 2 µg/mL | > 64 µg/mL | – |
| CCn1cc(C(=O)O)c(=O)c2cc(F)c(N3CCN(Cc4nc(C)c5c(c4CO)COC(C)(C)O5)C(C)C3)c(F)c21 (centres undefined) | 64 µg/mL | > 64 µg/mL | 16 µg/mL | 4 µg/mL | 8 µg/mL | 2 µg/mL | > 64 µg/mL | – |
| CCCCCCCCC1OCc2c(CN3CCN(c4cc5c(cc4F)c(=O)c(C(=O)O)cn5CC)CC3)cnc(C)c2O1 (centres undefined) | > 64 µg/mL | > 64 µg/mL | > 64 µg/mL | 64 µg/mL | > 64 µg/mL | > 64 µg/mL | > 64 µg/mL | – |
| COc1c(N2C[C@@H]3CCCN(Cc4cnc(C)c5c4COC(C)O5)[C@@H]3C2)c(F)cc2c(=O)c(C(=O)O)cn(C3CC3)c12 (some centres undefined) | 1 µg/mL | > 64 µg/mL | 4 µg/mL | 1 µg/mL | 16 µg/mL | 4 µg/mL | 4 µg/mL | – |
| CCCCCCCCC1OCc2c(CN3CCC[C@H]4CN(c5c(F)cc6c(=O)c(C(=O)O)cn(C7CC7)c6c5OC)C[C@H]43)cnc(C)c2O1 (some centres undefined) | 16 µg/mL | > 64 µg/mL | 32 µg/mL | 8 µg/mL | > 64 µg/mL | 16 µg/mL | 16 µg/mL | – |
| CCn1cc(C(=O)O)c(=O)c2cc(F)c(N3CCN(Cc4cnc(C)c(O)c4C)CC3)cc21.Cl | 4 µg/mL | > 64 µg/mL | 16 µg/mL | 2 µg/mL | 2 µg/mL | 64 µg/mL | 8 µg/mL | – |
| Cc1ncc(CN2CCN(c3cc4c(cc3F)c(=O)c(C(=O)O)cn4C3CC3)CC2)c2c1OC(C)(C)OC2.Cl | 32 µg/mL | > 64 µg/mL | 16 µg/mL | 2 µg/mL | 64 µg/mL | 4 µg/mL | 32 µg/mL | – |
| CCCC1OCc2c(CN3CCN(c4c(F)cc5c(=O)c(C(=O)O)cn(CC)c5c4F)CC3C)cnc(C)c2O1 (centres undefined) | 16 µg/mL | > 64 µg/mL | 8 µg/mL | 2 µg/mL | > 64 µg/mL | 2 µg/mL | 16 µg/mL | – |
